Measurements reported in article PMC11855144, “Role of Human DNA Ligases in Mediating Pharmacological Activities of Flavonoids” (International Journal of Molecular Sciences, 2025).
≈ marks a conversion by molar mass, not a printed value. Values belong to the compound of their own block, whether it stands above or below them.

How the values were obtained:
[1] = target: human DNA ligase I (Homo sapiens, UniProt P18858); assay: nick-sealing DNA ligase assay (gel electrophoresis), DNA ligase I; format: biochemical; conditions: ATP 10 μM, DNA substrate 50 nM, human DNA ligase I 0.5 nM; for IC50: read-out: IC50 against human DNA ligase I (converted)
Sequence of human DNA ligase I (P18858 whole entry): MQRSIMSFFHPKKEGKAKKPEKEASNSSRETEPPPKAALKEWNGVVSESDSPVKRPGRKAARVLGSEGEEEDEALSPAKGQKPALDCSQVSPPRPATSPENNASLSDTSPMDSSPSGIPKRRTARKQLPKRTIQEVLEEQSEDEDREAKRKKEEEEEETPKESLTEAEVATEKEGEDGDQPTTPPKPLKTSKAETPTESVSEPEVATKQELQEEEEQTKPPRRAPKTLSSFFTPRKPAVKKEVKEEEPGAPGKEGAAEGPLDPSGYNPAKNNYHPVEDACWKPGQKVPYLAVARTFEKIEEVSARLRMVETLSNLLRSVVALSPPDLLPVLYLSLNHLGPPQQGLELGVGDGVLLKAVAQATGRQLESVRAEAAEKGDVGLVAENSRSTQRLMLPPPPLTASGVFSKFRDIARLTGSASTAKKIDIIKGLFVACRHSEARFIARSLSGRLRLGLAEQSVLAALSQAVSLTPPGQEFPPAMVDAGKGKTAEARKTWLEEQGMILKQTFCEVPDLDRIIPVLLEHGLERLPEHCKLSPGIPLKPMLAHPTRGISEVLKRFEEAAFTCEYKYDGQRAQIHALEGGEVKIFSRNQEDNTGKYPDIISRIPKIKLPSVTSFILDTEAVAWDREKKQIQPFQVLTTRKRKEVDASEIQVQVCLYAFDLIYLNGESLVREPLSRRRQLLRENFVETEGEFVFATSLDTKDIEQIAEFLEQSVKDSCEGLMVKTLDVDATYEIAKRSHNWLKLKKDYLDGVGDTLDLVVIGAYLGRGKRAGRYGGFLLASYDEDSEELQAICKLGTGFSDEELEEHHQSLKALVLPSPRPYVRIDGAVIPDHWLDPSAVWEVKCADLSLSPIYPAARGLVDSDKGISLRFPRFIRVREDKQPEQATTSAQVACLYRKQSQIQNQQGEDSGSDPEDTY
Experimental: In this study, a standard nick-sealing assay was used to identify potential human DNA ligase inhibitors from representative flavonoids. […] Selected flavonoids with the resorcinol moiety in their A rings were tested as potential DNA ligase inhibitors. Epigallocatechin gallate (EGCG) is also a flavonoid found in plants, herbs, fruits, and green tea. Rutin is a flavonoid glycoside combining the flavonol quercetin and the disaccharide rutinose found in a wide variety of plants, including citrus. Quercetin is a plant flavonoid found in many fruits, vegetables, and other foods.
Figure 3 The effects of selected flavonoids on human DNA ligase I activity. DNA ligase assays were performed in reaction mixtures in the presence of ATP (10 μM), DNA substrate (50 nM), and human DNA ligase I (0.5 nM) as previously described.
Figure 4 The effects of cyaniding and rosinidin on human DNA ligase I activity. DNA ligase assays were performed in reaction mixtures in the presence of ATP (10 μM), DNA substrate (50 nM), and human DNA ligase I (0.5 nM) as previously described.
(§1) A 39 base pair nicked duplex was constructed and used as a substrate for the ligase reaction. In brief, the first 19 base pair oligonucleotide (5′-CGTAAAACGACGGCCAGTG-3′) and the second 20 base pair oligonucleotide (5′-[…]-3′) labeled with radioactive ^32P were annealed to the complementary 39 base pair oligonucleotide (5′-[…]-3′) to construct a 39 base pair nicked duplex as previously described. The resulting nicked duplex DNA was purified via 8% nondenaturing polyacrylamide gel electrophoresis.
(§2) DNA ligase I activity was routinely assayed according to a modified procedure described previously by determining the ligation of two oligonucleotides, which are hybridized to a complementary 39-mer oligonucleotide. Ligation of 5′-[^32P] end-labeled 20-mer oligonucleotide to the unlabeled 19-mer oligonucleotide was analyzed via polyacrylamide gel electrophoresis in the presence of 8 M urea. The assays were performed at least twice, and representative data are shown in this paper.

[2] = system: Caco-2 cells; assay: Caco-2 cell growth and morphology (phase contrast microscopy); format: cell-based, human
Text: (§3) Some flavonoids are known to be cytotoxic to different types of human cancer cell lines. […] Phase contrast views reveal that rutin-treated cells are relatively thin and shrunken, consistent with the reduced cellular densities commonly observed in cultures exposed to cytotoxic agents (Figure 7A). […] The γH2AX is a sensitive and selective marker for DSBs, as phosphorylation of H2AX (γH2AX) is increased at such breakage sites. […] Phase contrast micrographs of Caco-2 cells treated with various concentrations of rutin for 48 h. Photographs taken at 10× magnification: (A) increased expressions of γH2AX protein in Caco-2 cells incubated with rutin for 48 h, compared with corresponding solvent control group, as measured via Western blot (B). The human intestinal Caco-2 cells were grown at 37 °C and 5% CO2 in a humidified atmosphere, and treated and untreated control cells were examined using an inverted phase-contrast microscope (Fisher Scientific Inverted Phase Contrast Microscope EQ-006, Pittsburgh, PA, USA) to assess cell shape and morphology.

[3] = system: γH2AX protein; assay: γH2AX protein level in Caco-2 cells (Western blot); format: cell-based, human; conditions: 48 h, versus solvent control
Text: as §3, with “(B).” for “(B). The human intestinal Caco-2 cells were grown at 37 °C and 5% CO2 in a humidified atmosphere, and treated and untreated control cells were examined using an inverted phase-contrast microscope (Fisher Scientific Inverted Phase Contrast Microscope EQ-006, Pittsburgh, PA, USA) to assess cell shape and morphology.”

[4] = target: T1, human DNA ligase III (Homo sapiens, UniProt P49916); assay: nick-sealing DNA ligase assay, DNA ligase III; format: biochemical; conditions: ATP 10 μM, DNA substrate 50 nM; read-out: IC50 against human DNA ligase III (converted)
T1 sequence (P49916 43-1009): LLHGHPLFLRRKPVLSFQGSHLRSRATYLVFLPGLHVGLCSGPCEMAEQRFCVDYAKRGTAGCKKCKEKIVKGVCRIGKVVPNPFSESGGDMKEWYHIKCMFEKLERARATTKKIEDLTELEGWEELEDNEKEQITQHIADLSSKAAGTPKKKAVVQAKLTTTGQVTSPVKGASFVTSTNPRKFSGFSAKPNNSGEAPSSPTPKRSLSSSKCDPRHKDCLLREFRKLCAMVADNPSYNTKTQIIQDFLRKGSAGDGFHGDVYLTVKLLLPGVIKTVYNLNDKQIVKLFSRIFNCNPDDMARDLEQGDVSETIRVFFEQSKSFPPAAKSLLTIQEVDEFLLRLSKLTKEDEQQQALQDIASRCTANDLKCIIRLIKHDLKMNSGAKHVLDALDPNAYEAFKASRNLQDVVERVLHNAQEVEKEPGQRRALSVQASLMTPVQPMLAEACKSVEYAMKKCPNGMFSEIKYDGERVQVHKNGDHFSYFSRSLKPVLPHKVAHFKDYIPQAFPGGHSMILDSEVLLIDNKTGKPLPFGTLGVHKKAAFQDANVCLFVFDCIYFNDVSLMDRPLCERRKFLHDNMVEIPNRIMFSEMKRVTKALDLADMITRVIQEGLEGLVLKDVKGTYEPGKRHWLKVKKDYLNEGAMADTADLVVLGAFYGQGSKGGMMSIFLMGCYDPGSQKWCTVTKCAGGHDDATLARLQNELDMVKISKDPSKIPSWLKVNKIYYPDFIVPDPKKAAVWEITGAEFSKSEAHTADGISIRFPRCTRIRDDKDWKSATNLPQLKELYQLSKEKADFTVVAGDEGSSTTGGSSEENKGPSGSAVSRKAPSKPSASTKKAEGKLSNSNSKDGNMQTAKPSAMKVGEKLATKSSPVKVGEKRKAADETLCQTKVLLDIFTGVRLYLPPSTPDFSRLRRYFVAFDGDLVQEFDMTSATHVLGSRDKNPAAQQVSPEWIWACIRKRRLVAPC
Experimental: (§4) To validate the results from the molecular modeling studies, we also tested the effects of rutin on human DNA ligase III and IV activity.
(§5) Figure 6 The effects of rutin on human DNA ligases III and IV activities. DNA ligase assays were performed in reaction mixtures in the presence of ATP (10 μM), DNA substrate (50 nM), and human DNA ligase I (0.5 nM) as previously described.
as §1, §2

[5] = target: T2, human DNA ligase IV (Homo sapiens, UniProt P49917); assay: nick-sealing DNA ligase assay, DNA ligase IV; format: biochemical; conditions: ATP 10 μM, DNA substrate 50 nM; read-out: IC50 against human DNA ligase IV (converted)
T2 sequence (P49917 1-911): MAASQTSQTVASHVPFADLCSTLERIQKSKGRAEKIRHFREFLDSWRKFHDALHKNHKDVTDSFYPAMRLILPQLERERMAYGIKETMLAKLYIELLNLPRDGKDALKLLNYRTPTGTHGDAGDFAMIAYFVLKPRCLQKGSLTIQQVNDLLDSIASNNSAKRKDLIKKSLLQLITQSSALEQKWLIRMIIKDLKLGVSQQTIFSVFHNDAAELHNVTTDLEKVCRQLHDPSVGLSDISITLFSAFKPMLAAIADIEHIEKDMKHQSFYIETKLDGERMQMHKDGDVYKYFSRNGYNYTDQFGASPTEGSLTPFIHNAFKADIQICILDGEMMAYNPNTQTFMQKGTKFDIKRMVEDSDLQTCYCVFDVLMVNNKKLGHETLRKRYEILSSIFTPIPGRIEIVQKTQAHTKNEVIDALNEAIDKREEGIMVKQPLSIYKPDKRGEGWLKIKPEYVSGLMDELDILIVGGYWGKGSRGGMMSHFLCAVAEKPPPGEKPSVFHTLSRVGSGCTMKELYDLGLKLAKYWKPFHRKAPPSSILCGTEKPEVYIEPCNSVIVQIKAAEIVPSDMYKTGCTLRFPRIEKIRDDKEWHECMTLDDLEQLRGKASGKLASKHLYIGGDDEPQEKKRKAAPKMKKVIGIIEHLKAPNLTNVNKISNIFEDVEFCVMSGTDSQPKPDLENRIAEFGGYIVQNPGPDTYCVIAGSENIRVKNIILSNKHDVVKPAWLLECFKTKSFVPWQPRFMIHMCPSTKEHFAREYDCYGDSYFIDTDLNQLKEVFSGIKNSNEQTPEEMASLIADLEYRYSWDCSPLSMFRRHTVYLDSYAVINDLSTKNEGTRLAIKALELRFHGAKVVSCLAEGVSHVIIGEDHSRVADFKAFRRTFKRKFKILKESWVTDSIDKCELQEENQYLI
Experimental: as §4, §5, §1, §2

Structure (SMILES): C[C@@H]1O[C@@H](OC[C@H]2O[C@@H](Oc3c(-c4ccc(O)c(O)c4)oc4cc(O)cc(O)c4c3=O)[C@H](O)[C@@H](O)[C@@H]2O)[C@H](O)[C@H](O)[C@H]1O [rutin]
- IC50 [1]: 4.91 µM
- effect on cell growth ([2]; Caco-2 cells, 48 h, concentrations lower than IC50): inhibitory effect on cell growth
- IC50 ([2]; Homo sapiens, Caco-2): 25 µg/mL (≈ 40.9 µM)
- levels of γH2AX protein [3]: increases levels of γH2AX protein in a dose-dependent manner
- IC50 [4]: 0.819 µM
- IC50 [5]: 1.64 µM

Structure (SMILES): O=c1c(O)c(-c2ccc(O)c(O)c2)oc2cc(O)cc(O)c12 [quercetin]
- IC50 [1]: 1.65 µM

Structure (SMILES): Oc1cc(O)c2c(c1)O[C@H](c1cc(O)c(O)c(O)c1)[C@H](O)C2 [epigallocatechin]
- IC50 [1]: 1.63 µM

Next, values leading:

- IC50 [1]: ~3.48 µM
Structure (SMILES): Oc1cc(O)c2cc(O)c(-c3ccc(O)c(O)c3)[o+]c2c1 [cyanidin]

- activity against human DNA ligase I [1]: little activity
Structure (SMILES): COc1cc(O)c2cc(O)c(-c3ccc(O)c(OC)c3)[o+]c2c1 [rosinidin]
